In US20230310413A1, “PHARMACEUTICAL FORMULATIONS COMPRISING A MALT1 INHIBITOR AND A MIXTURE OF POLYETHYLENE GLYCOL WITH A FATTY ACID” (JANSSEN PHARMACEUTICA NV, priority 2020, published 2023):
Where two headings read alike, the source gives them in different places.

Assay: Pharmacokinetics of Compound A after single oral administration at 200 mg in fasted and fed dogs
Format: in vivo, male beagle dogs
Details: 200 mg oral dose; for AUC(0-t) / Tmax / half-life / Cmax: male, po, 200 mg; for Tmax: median; for half-life: N = 2, poor linear regression; for Cmax: Gelucire 50/13 size 00 hard gelatin capsule, N=3
Method: Example 8: Pharmacokinetics of Compound a after Single Oral Administration at 200 Mg in Fasted and Fed Dogs
A pharmacokinetic (PK) study was carried out using a Compound A stearoyl polyoxy-32 glycerides formulation.
A formulation of compound A and stearoyl polyoxy-32 glycerides (Gelucire® 50/13) in size 00 hard gelatin capsules (200 mg dose per capsule), according to Table 3, was administered orally to male beagle dogs (N=3) in a fasted state as well as a fed state.

[1] = beagle, dog, plasma, fasted male dogs, Gelucire 50/13 hard gelatin capsule
[2] = beagle, dog, plasma, fed male dogs, Gelucire 50/13 hard gelatin capsule

AUC(0-inf) (beagle, dog, plasma, fasted male dogs, Gelucire 50/13 hard gelatin capsule, mean): 578 µg·h/mL
Fed vs Fasted (fed male dogs, fasted group as reference): 1.3
AUC(0-t) (beagle, dog, plasma, fasted male dogs, Gelucire 50/13 hard gelatin capsule, mean, read-out: AUC0-24 h): 246 µg·h/mL
AUC(0-t) (beagle, dog, plasma, fasted male dogs, Gelucire 50/13 hard gelatin capsule, mean, read-out: AUC0-96 h): 521 µg·h/mL
Tmax [1]: 2 h
half-life [1]: 30 h
Cmax (beagle, dog, plasma, fasted male dogs, mean): 16000 ng/mL
AUC(0-t) (beagle, dog, plasma, fed male dogs, Gelucire 50/13 hard gelatin capsule, mean, read-out: AUC0-24 h): 121 µg·h/mL
AUC(0-t) (beagle, dog, plasma, fed male dogs, Gelucire 50/13 hard gelatin capsule, mean, read-out: AUC0-96 h): 502 µg·h/mL
Tmax [2]: 24 h
half-life [2]: 34 h
Cmax (beagle, dog, plasma, fed male dogs, mean): 9330 ng/mL
SMILES: O=C(Nc1ccnc(C(F)(F)F)c1)c1cnn(-c2cccc3c(=O)[nH]ccc23)c1C(F)(F)F [Compound A, 1-(1-oxo-1,2-dihydroisoquinolin-5-yl)-5-(trifluoromethyl)-N-(2-(trifluoromethyl)pyridin-4-yl)-1H-pyrazole-4-carboxamide]
